Experiment: cn = amount concentration of the nth substance listed, in mol/dm3
Conditions: 303 K, 101 kPa, Liquid; for viscosity: Capillary tube (Ostwald / Ubbelohde) method; for speed of sound: Linear variable-path acoustic interferometer; for mass density: Pycnometric method

O=C1C(Cl)=C(Cl)C(=O)C(Cl)=C1Cl [2,3,5,6-tetrachloro-p-benzoquinone] + C[S+](C)[O-]
Conditions	mass density [kg/m3]	speed of sound [m/s]	viscosity [mPa·s]
c1 = 0.002	1091.4	1472.4	1.756
c1 = 0.004	1091.6	1472.6	1.757
c1 = 0.006	1091.9	1471.9	1.758
c1 = 0.008	1091.9	1471.3	1.773
c1 = 0.01	1092.1	1471.6	1.769
c1 = 0.012	1091.6	1470.3	1.767
c1 = 0.014	1091.4	1467.1	1.76
c1 = 0.016	1091.2	1468.3	1.756
c1 = 0.018	1091.7	1468.5	1.767
c1 = 0.02	1091.7	1468.7	1.769

Cc1ccccc1N [2-methylaniline] + C[S+](C)[O-]
Conditions	mass density [kg/m3]	speed of sound [m/s]	viscosity [mPa·s]
c1 = 0.002	1090.8	1471.4	1.713
c1 = 0.004	1090.4	1471.8	1.713
c1 = 0.006	1090.5	1472	1.723
c1 = 0.008	1089.6	1471.2	1.718
c1 = 0.01	1089.5	1472.6	1.72
c1 = 0.012	1090	1473.5	1.723
c1 = 0.014	1089.7	1472.5	1.718
c1 = 0.016	1089.8	1471.9	1.724
c1 = 0.018	1089.4	1473	1.733
c1 = 0.02	1090.3	1473.9	1.723

CN(C)c1ccccc1 [N,N-dimethylaniline] + C[S+](C)[O-]
Conditions	mass density [kg/m3]	speed of sound [m/s]	viscosity [mPa·s]
c1 = 0.002	1090.7	1471.9	1.734
c1 = 0.004	1090.4	1472.5	1.725
c1 = 0.006	1090.7	1471.9	1.721
c1 = 0.008	1090.6	1472.6	1.731
c1 = 0.01	1089.9	1471.8	1.747
c1 = 0.012	1089.6	1472.1	1.724
c1 = 0.014	1090.1	1472.3	1.73
c1 = 0.016	1089.8	1471.6	1.731
c1 = 0.018	1090.3	1472.2	1.733
c1 = 0.02	1090.2	1472	1.732

CNc1ccccc1 [N-methylaniline] + C[S+](C)[O-]
Conditions	mass density [kg/m3]	speed of sound [m/s]	viscosity [mPa·s]
c1 = 0.002	1090.8	1471.6	1.713
c1 = 0.004	1090.4	1471.8	1.713
c1 = 0.006	1090	1472	1.723
c1 = 0.008	1089.6	1471.2	1.718
c1 = 0.01	1089.8	1471.7	1.724
c1 = 0.012	1090	1473.5	1.733
c1 = 0.014	1089.7	1472.5	1.723
c1 = 0.016	1089.8	1471.9	1.718
c1 = 0.018	1089.8	1473	1.718
c1 = 0.02	1090.1	1473.9	1.72

Nc1ccccc1 [aniline] + C[S+](C)[O-]
Conditions	mass density [kg/m3]	speed of sound [m/s]	viscosity [mPa·s]
c1 = 0.002	1090.4	1471.6	1.789
c1 = 0.004	1090.6	1473.9	1.798
c1 = 0.006	1090.7	1473.4	1.79
c1 = 0.008	1090.2	1472.7	1.79
c1 = 0.01	1090.6	1474.1	1.806
c1 = 0.012	1090.4	1473.7	1.777
c1 = 0.014	1090.5	1472.7	1.802
c1 = 0.016	1090.3	1472.8	1.819
c1 = 0.018	1090.4	1473	1.79
c1 = 0.02	1090.6	1474	1.792
